From patent US20180057530A1, “CYCLIC PEPTIDE COMPOUND, AND PREPARATION AND USE THEREOF” (Zhejiang Hisun Pharmaceutical Co., Ltd., priority 2015, published 2018) come the findings set out here.

In data set [1] the test system is acute monocytic leukemia cells (MV4-11). Put plainly: MTT tumor cell growth inhibition, MV4-11. As to conditions: Homo sapiens; MV4-11, MTT, 72 hours, relative IC50. It is filed as cell-based. From the text: (§1) The tetrazolium salt (MTT) reduction method was used to test the activity of the compounds of the present invention. Human breast cancer cells (MDA-MB-231) (CAS cell library; catalog number: TCHu227), human lung cancer cells (A549) (ATCC® Number: CRM-CCL-185™), human colon cancer cells (HCT-116) (CAS cell library; catalog number: TCHu99), acute monocytic leukemia cells (MV4-11) (ATCC® Number: CRL-9591™), tissue cell lymphoma cells (U-937) (CAS cell library; catalog number: TCHu159), human acute promyelocytic leukemia cells (HL-60) (ATCC® Number: CCL-240™), chronic myelogenous leukemia cells (of K562) (CAS cell library; catalog number: TCHu191), human hepatocellular carcinoma cells (BEL-7404) (CAS cell library; catalog number: TCHu64), human pancreatic cancer cells (BxPC3) (ATCC® Number: […])) and human prostate cancer cells (PC-3) (ATCC®Number: […]) were inoculated in 96-well plates, 90 μL/well, with 3000 to 8000 cells in respective well; in the first row of plate, 100 μL/well culture medium was added; the 96-well plate was pre-incubated in an incubator at 37° C., 5% CO2, and 100% relative humidity for 24 hours.
(§2) A compound was weighed and configured to a 10 mM/L stock solution, and the compound was diluted three-fold sequentially from the highest concentration of 2 millimoles (mM); 95 μl the corresponding cell medium was added to each well of a V-bottom dispensing plate; 5 μl of the compound on a 200× plate was transferred to a 10× dispensing plate according to the concentration; 5 μl of dimethylsulfoxide (DMSO) was evenly mixed in the corresponding 95 μl cell culture medium as a vehicle control. 10 μl of the compound-medium in each well of the 10× dispensing plate was added to a 96-well plate already plated with cells. […]
(§3) After the compound for cells was treated for 72 hours, 20 microliters of 5 mg/ml MTT was added to each well; all the steps need to be aseptic. […] The absorbance at 490 nm was read on a SpectraMax M2e instrument. The compound activity (relative IC50) was calculated using GraphPad Prism software.

A further data set relates to tumor cells. Put plainly: MTT tumor cell growth inhibition, summary over the cell line panel. It is filed as cell-based. The following applies: ten tumor cell lines of Table 2, MTT, 72 hours; read-out: IC50 of tumor cell proliferation inhibition, span over the tested cell lines.
From the text: as §1, §2, §3

The next data set deals with MDA-MB-231 breast cancer. Nature of the data set: In vivo efficacy study of compound B, xenografted MDA-MB-231 breast cancer. Set-up: species or system BALB/c nude mice. The following applies: once a week for four weeks; for Day 28 tumor volume: mean ± standard error. As for the experimental part:
Female BALB/C nude mice 6 weeks to 8 weeks old and weighing about 19 g to 29 g were taken and raised for one week (supplier: Beijing Vital River Laboratory Animal Technology Co., Ltd.) MDA-MB-231 (ATCC® Number: HTB-26™) breast cancer cells were cultured in vitro; the culture conditions were: 10% fetal bovine serum was added to an L-15 medium, 37° C., and 0% CO2. Passage was performed twice a week. When the cells were in the exponential growth phase, the cells were collected, counted, and inoculated. […] The cells were suspended in phosphate buffered saline (PBS) and Matrigel (1:1) was added. A total of 50 mice were inoculated. […] The experimental indicator was to examine whether the tumor growth was inhibited, delayed, or subsided. Tumor diameter was measured three times a week with a vernier caliper. The formula for calculating tumor volume is as follows: […] The antitumor efficacy of the compound was evaluated with T/C (%) and of TGI. […] T0 indicates the mean tumor volume of the treatment group at the time of administration by cage; Vi indicates the mean tumor volume of the vehicle group on the same day; V0 indicates the mean tumor volume of the vehicle group at the time of administration by cage. At the end of the experiment, the tumors were stripped, weighed, and photographed.

For data set [2], the system named is tissue cell lymphoma cells (U-937). Nature of the data set: MTT tumor cell growth inhibition, U-937. The following applies: Homo sapiens; U-937, MTT, 72 hours, relative IC50. It is filed as cell-based.
From the text: as §1, §2, §3

Data set [3] relates to human lung cancer cells (A549). Put plainly: MTT tumor cell growth inhibition, A549. The following applies: 72 hours, relative IC50. It is filed as cell-based.
From the text: as §1, §2, §3

Data set [4] relates to chronic myelogenous leukemia cells (K562). Nature of the data set: MTT tumor cell growth inhibition, K562. It is filed as cell-based. As to conditions: Homo sapiens, 72 hours, relative IC50.
From the text: as §1, §2, §3

Data set [5] concerns human acute promyelocytic leukemia cells (HL-60). Nature of the data set: MTT tumor cell growth inhibition, HL-60. It is filed as cell-based. The following applies: HL-60, MTT, 72 hours, relative IC50.
From the text: as §1, §2, §3

The test system of data set [6] is human colon cancer cells (HCT-116). Nature of the data set: MTT tumor cell growth inhibition, HCT-116. It is filed as cell-based. As to conditions: HCT-116, MTT, 72 hours, relative IC50.
From the text: as §1, §2, §3

The test system of data set [7] is human hepatocellular carcinoma cells (BEL-7404). Nature of the data set: MTT tumor cell growth inhibition, BEL-7404. It is filed as cell-based. The following applies: BEL-7404, MTT, 72 hours, relative IC50.
From the text: as §1, §2, §3

Data set [8] relates to human prostate cancer cells (PC-3). Put plainly: MTT tumor cell growth inhibition, PC-3. It is filed as cell-based. As to conditions: PC-3, MTT, 72 hours, relative IC50.
From the text: as §1, §2, §3

The subject of data set [9] is human pancreatic cancer cells (BxPC3). Nature of the data set: MTT tumor cell growth inhibition, BxPC3. As to conditions: BXPC-3, 72 hours, relative IC50. It is filed as cell-based.
From the text: as §1, §2, §3

In data set [10] the test system is Human breast cancer cells (MDA-MB-231). Nature of the data set: MTT tumor cell growth inhibition, MDA-MB-231. It is filed as cell-based. As to conditions: MDA-MB-231, MTT, 72 hours, relative IC50.
From the text: as §1, §2, §3

In another data set the test system is blood cells. Nature of the data set: Effect on blood phase, complete blood count (CBC) analysis. It is filed as in vivo, BAB-C mice. As to conditions: mouse, in vivo, 0.5 mg/kg. Here is the method: BAB-C mice (6 to 8 weeks old, a half being males and the other half females, weighing about 18 g-25 g, supplier: Beijing Vital River Laboratory Animal Technology Co., Ltd.) were raised for one week and then divided into three groups: normal control group, Romidepsin group, and compound A group. The normal group was injected with the vehicle; the drug group was injected with 0.5 mg/kg of the drug; 24 hours and 48 hours respectively after administration, a complete blood count (CBC) analysis was performed; for all the data, mean±standard deviation (mean±SD) was adopted; T tests were performed between inter-group data.

In data set [11] the test system is human lung cancer cell line NCI-H460. Put plainly: In vivo pharmacodynamic study of compound A, NCI-H460 nude mice transplanted tumor model. More on the design: species or system BALB/C nude mice. The following applies: q4d, 4x. Here is the method:
(§4) Female BALB/C nude mice 6 weeks to 8 weeks old and weighing about 19 g to 29 g were taken (Supplier: Beijing Vital River Laboratory Animal Technology Co., Ltd.) and raised for a week. A human cancer nude mice […] transplanted tumor model was established: Human breast cancer cell line MDA-MB-231 (ATCC® Number: HTB-26™) and human lung cancer cell line NCI-H460 (ATCC® Number: HTB-177™) were incubated. The monolayer tumor cells were digested and detached; then, they were collected and resuspended in a serum-free culture medium, and then were adjusted to a concentration of 2×10^6/0.2 mL. They were put into an iced box and brought to an animal house. A syringe with a No. 6 needle was used to directly take a 0.2 mL cell suspension and transplanted it into the rear subcutaneous scapular regions of the left axillaries of the nude mice at 2×10^6/0.2 mL per mouse. Tumor volumes were measured once every 2 days to 3 days. After two weeks, tumor-bearing nude mice with vigorous tumor growth and no ulceration were selected, the tumors were removed from them under sterile conditions. The tumor tissues were cut to about 2 mm to 3 mm in diameter and inoculated in the rear subcutaneous scapular regions of the left axillaries of the nude mice. After passage for three generations, when the tumor volume grew to 100 mm^3, nude mice with tumor masses that were too large or too small were removed and randomly grouped for administration.
(§5) The mice were randomly divided into five groups, including the negative control group (vehicle), positive control group (Romidepsin, 2.4 mg/kg), treatment group with the high, medium, and low doses of compound A (respectively 7.2 mg/kg, 4.8 mg/kg, 2.4 mg/kg, wherein the high dose was lower than the maximum tolerated dose, MTD); there were six nude mice in each group; intravenous administration was given every 4 days; 4 doses were given. During the period, the weights and tumor volumes of the animals were measured every 2 days, and the number of animal deaths was recorded. 24 hours after the last administration, the animals were sacrificed. The tumor volumes, tumor weights, and body weights of nude mice were measured; tumor volume growth curves, nude mice weight growth curves and tumor inhibition rates, mortality of the animals were plotted; the relative tumor proliferation rate T/C (%) was calculated; according to the formula T/C (%)=TRTV/CRTV*100%. (TRTV: treatment group RTV; CRTV: negative control group RTV, relative tumor volume RTV=Vt/V0, wherein V0 is the tumor volume at the time of administration by group; Vt is the post-administration tumor volume).

Data set [12] has as its system Human breast cancer cell line MDA-MB-231. Nature of the data set: In vivo pharmacodynamic study of compound A, MDA-MB-231 nude mice transplanted tumor model. More on the design: species or system BALB/C nude mice. As to conditions: MDA-MB-231 model, q4d, 4x. Here is the method: as §4, §5

For the compound `C/C=C1\NC(=O)[C@H]2CS[S+]([O-])CC/C=C/[C@H](CC(=O)N[C@H](C(C)C)C(=O)N2)OC(=O)[C@H](C(C)C)NC1=O` (stereo partly drawn) [Compound B], the IC50 in data set [1] is 4.8 nM; in the data set on tumor cells, 2 to 6.5 nM; in [2] it was 5.4 nM; in data set [3], 3.6 nM; in data set [4] it was 2.6 nM; in [5], 3.4 nM. Moreover, the IC50 is 6.1 nM in data set [6]; 4.9 nM in data set [7]; 6.1 nM in data set [8]; 6.5 nM in [9]; 2 nM in data set [10]. Moreover, the “Day 28 tumor volume” value in the data set with MDA-MB-231 breast cancer (2.2 mg/kg intravenous) was determined as 259 ± 47 mm^3; in the data set on MDA-MB-231 breast cancer (2.2 mg/kg intravenous, listed as compound B), 259 mm^3; in the data set with MDA-MB-231 breast cancer (4.4 mg/kg intravenous) it was 202 ± 38 mm^3; with MDA-MB-231 breast cancer (4.4 mg/kg intravenous, listed as compound B), 202 mm^3; with MDA-MB-231 breast cancer (6.6 mg/kg intravenous), 187 ± 29 mm^3; with MDA-MB-231 breast cancer (6.6 mg/kg intravenous, listed as compound B), 187 mm^3. The “T/C (%)” value is 11.3% with MDA-MB-231 breast cancer (day 28, 2.2 mg/kg intravenous); 5.9% in the data set with MDA-MB-231 breast cancer (day 28, 4.4 mg/kg intravenous); 4.5% in the data set with MDA-MB-231 breast cancer (day 28, 6.6 mg/kg intravenous). For the same compound, the “TGI (%)” value in the data set on MDA-MB-231 breast cancer (day 28, 2.2 mg/kg intravenous) came out at 88.7%; with MDA-MB-231 breast cancer (day 28, 4.4 mg/kg intravenous), 94.1%; in the data set with MDA-MB-231 breast cancer (day 28, 6.6 mg/kg intravenous), 95.5%.
Regarding `C/C=C1\NC(=O)[C@H]2C[S+]([O-])SCC/C=C/[C@H](CC(=O)N[C@H](C(C)C)C(=O)N2)OC(=O)[C@H](C(C)C)NC1=O` (stereo partly drawn) [Compound A], the IC50 is 33 nM in data set [1]; 9.7 to 35.9 nM in the data set with tumor cells; 22.8 nM in data set [2]; 10.7 nM in data set [3]; 23.2 nM in [4]; 35.9 nM in [5]. For the same compound, the IC50 in data set [6] is 29.3 nM; in [7], 10 nM; in [8] it was 11.9 nM; in data set [9] it was 13.9 nM; in data set [10], 9.7 nM. The “PLT compared with the normal group” value in the data set on blood cells is recorded as “significantly decreased”. Further, in the data set with blood cells, the “WBCs compared with the normal group” value is on record as “no significant difference compared with the normal group”. The “Relative tumor proliferation rates T/C (%)” value is given as 44%(2.4 mg/kg, q4d, 4x) in [11] (2.4 mg/kg); 38.6%(4.8 mg/kg, q4d, 4x) in data set [11] (4.8 mg/kg); 25.2%(7.2 mg/kg, q4d, 4x) in data set [11] (7.2 mg/kg); 45.5%(2.4 mg/kg, q4d, 4x) in data set [12] (2.4 mg/kg); 35.4%(4.8 mg/kg, q4d, 4x) in data set [12] (4.8 mg/kg); 29.8%(7.2 mg/kg, q4d, 4x) in [12] (7.2 mg/kg).
